According to ChEMBL document CHEMBL1201862, “PubChem BioAssay data set” (2004):
Calls of active or inactive are those of the source.

Legend:
[1] = target: T1, Long-chain-fatty-acid--AMP ligase FadD28 (Mycobacterium tuberculosis, UniProt P9WQ59); experiment: Fluorescence polarization aasay to screen for inhibitors that compete for the binding of FadD28 to a bisubstrate Measured in Biochemical System Using Plate Reader - 2147-01_Inhibitor_Dose_CherryPick_Activity.; type: functional, Mycobacterium tuberculosis H37Rv
T1 sequence (P9WQ59 whole entry): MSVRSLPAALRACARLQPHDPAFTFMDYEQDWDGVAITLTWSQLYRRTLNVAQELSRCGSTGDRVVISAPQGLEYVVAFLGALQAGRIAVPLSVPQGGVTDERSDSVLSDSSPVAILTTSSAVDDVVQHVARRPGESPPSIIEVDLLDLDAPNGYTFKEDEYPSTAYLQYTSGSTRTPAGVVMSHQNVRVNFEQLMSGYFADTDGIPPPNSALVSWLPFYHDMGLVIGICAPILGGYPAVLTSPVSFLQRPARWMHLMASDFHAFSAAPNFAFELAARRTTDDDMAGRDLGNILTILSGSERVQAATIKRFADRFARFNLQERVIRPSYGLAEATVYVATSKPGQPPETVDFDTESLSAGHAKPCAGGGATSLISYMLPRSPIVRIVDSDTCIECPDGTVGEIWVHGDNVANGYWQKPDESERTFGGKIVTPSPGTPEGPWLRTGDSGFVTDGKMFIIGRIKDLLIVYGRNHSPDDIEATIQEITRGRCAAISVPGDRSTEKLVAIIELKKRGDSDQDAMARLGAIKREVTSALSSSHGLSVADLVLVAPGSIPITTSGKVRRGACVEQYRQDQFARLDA

[2] = activation of miR-122 Renilla sensor silencing – cell-based, Huh7 psiCHECK-miR122, Renilla luciferase, cherry-picked, dose response (AID 651956); type: functional;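 also: huh7 hepatoma cells stably carrying a psiCHECK-2 miR-122 sensor plasmid; renilla luciferase signal reporting endogenous miR-122 activity after 48 h compound exposure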
[3] = target: Ras and Rab interactor 1/Tyrosine-protein kinase ABL1 (Homo sapiens, UniProt P00519+Q13671); type: functional;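 also: biochemical TR-FRET dose-response test measuring inhibition of binding between Rin1 and Abl proteins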
Ras and Rab interactor 1/Tyrosine-protein kinase ABL1, sequence (P00519 whole entry): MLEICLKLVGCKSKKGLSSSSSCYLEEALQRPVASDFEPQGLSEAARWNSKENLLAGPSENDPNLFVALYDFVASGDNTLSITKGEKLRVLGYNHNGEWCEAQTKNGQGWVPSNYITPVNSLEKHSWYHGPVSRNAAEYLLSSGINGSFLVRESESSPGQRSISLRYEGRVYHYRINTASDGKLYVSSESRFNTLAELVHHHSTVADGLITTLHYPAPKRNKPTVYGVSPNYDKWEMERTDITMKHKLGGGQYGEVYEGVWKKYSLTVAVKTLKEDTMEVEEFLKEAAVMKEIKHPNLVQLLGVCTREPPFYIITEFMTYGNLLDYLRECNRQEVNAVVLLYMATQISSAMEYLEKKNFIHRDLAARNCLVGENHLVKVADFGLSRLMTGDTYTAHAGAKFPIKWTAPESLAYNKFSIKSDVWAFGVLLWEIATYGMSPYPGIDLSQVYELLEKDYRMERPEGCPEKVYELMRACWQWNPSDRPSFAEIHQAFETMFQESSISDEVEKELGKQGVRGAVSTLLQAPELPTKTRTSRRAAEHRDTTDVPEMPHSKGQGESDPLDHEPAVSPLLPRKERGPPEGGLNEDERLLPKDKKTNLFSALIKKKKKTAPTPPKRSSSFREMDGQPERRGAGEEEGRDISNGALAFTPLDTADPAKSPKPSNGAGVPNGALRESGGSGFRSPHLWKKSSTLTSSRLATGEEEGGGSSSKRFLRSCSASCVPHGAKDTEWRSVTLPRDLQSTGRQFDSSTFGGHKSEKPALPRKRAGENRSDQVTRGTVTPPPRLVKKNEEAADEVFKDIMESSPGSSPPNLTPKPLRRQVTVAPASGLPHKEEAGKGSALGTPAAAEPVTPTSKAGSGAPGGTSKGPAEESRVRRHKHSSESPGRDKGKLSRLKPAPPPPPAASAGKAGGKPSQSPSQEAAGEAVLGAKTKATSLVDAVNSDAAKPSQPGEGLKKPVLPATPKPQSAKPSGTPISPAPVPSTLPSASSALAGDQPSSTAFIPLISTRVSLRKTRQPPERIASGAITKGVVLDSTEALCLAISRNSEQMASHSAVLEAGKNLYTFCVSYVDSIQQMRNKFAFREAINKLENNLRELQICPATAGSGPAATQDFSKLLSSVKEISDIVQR
Ras and Rab interactor 1/Tyrosine-protein kinase ABL1, sequence (Q13671 whole entry): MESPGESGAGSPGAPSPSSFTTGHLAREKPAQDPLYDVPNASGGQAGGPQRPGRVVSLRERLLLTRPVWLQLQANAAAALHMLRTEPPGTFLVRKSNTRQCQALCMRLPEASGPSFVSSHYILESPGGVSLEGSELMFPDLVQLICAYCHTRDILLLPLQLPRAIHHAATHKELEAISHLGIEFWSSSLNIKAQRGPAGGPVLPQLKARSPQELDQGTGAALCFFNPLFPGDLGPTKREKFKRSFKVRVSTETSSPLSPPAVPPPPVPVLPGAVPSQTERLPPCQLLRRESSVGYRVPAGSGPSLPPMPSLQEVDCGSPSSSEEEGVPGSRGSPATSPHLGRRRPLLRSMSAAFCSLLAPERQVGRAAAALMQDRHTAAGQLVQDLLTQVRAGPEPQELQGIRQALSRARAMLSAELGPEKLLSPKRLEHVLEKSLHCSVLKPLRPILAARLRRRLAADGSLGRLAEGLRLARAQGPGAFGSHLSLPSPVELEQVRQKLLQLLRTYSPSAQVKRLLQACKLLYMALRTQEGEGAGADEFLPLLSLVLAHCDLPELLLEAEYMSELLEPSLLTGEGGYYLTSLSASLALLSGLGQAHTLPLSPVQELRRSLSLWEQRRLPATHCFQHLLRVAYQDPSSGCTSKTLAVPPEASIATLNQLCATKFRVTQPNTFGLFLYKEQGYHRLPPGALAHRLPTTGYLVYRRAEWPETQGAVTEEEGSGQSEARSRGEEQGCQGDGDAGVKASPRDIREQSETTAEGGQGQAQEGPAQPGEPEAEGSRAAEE

[4] = target: DNA (cytosine-5)-methyltransferase 1 (Homo sapiens, UniProt P26358); experiment: inhibition of DNA methylation by DNMT1 – biochemical, fluorescent molecular beacon, confirmation (AID 602386); type: functional
DNA (cytosine-5)-methyltransferase 1, sequence (P26358 whole entry, the tested form may be a part): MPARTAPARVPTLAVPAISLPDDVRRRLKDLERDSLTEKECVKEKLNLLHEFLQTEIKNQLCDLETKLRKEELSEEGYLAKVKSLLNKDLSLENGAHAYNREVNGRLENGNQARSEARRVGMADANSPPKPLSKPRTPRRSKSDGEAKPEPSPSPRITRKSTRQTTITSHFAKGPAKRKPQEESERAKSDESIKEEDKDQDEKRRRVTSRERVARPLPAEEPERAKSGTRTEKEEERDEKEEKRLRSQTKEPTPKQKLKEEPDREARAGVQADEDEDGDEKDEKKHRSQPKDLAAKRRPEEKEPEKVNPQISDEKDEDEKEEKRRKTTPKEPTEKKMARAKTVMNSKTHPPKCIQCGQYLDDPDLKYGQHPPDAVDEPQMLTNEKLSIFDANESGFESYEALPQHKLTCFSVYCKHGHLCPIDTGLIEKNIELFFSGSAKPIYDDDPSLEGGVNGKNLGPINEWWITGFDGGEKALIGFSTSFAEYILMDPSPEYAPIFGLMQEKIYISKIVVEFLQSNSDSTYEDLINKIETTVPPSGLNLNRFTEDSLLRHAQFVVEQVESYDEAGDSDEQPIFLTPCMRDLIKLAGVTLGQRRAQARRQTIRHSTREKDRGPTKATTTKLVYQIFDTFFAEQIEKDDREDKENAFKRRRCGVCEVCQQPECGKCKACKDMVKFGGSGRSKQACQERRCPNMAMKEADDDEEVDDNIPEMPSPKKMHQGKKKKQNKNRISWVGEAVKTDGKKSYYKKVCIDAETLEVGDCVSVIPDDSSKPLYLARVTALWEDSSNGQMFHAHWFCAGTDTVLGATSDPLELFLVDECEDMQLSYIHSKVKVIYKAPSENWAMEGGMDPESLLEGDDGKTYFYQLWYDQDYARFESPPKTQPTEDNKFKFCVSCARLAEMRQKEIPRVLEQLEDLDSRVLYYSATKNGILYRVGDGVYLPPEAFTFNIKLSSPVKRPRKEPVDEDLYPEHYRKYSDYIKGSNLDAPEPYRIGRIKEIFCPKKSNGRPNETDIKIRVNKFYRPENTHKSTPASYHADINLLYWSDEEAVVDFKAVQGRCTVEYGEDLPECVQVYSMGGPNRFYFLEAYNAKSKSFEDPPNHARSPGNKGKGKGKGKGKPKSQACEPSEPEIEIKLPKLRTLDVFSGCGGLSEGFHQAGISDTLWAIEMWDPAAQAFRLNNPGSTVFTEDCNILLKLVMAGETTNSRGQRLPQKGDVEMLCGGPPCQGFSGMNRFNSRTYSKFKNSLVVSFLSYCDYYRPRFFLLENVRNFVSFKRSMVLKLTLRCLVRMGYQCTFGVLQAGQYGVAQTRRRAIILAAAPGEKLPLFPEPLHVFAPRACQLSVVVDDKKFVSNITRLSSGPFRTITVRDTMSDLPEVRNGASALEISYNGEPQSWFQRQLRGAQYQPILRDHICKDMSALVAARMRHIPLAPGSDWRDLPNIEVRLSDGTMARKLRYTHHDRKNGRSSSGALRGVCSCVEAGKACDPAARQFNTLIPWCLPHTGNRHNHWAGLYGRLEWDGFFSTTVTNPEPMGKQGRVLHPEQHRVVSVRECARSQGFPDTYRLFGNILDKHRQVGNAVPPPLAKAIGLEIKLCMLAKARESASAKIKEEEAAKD

[5] = target: T2, Carboxy-terminal domain RNA polymerase II polypeptide A small phosphatase 1 (Homo sapiens, UniProt Q9GZU7); experiment: CTDSP1 inhibitors, concentration-response, biochemical, absorbance readout, ultra-high-throughput screen actives (AID 540297); type: functional
T2 sequence (Q9GZU7 whole entry): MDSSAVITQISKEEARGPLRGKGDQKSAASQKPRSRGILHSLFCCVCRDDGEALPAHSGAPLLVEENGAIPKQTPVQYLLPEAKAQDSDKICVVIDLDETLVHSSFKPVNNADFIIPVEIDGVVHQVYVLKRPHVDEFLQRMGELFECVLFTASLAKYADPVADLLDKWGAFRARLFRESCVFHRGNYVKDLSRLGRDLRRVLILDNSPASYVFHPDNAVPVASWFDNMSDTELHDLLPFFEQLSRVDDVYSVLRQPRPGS

[6] = viability loss in THP-1 monocytes – THP-1 cells, cytotoxicity control for Vif-APOBEC3G degradation inhibitor project, dose response (AID 1117359); type: functional; conditions: THP-1
[7] = target: Heat shock protein HSP 90-alpha (Homo sapiens, UniProt P07900); type: functional, organism-based
Cytochrome P450 2C19 = Cytochrome P450 2C19 (Homo sapiens, UniProt P33261); experiment: Cytochrome panel assay with activity outcomes. Panel member name: p450-cyp2c19 Compounds with AC50 equal or less than 10 uM are considered active; type: functional; conditions: read-out: AC50
Protein skinhead-1 = target: T3, Protein skinhead-1 (Caenorhabditis elegans, UniProt P34707); type: functional
T3 sequence (P34707 whole entry): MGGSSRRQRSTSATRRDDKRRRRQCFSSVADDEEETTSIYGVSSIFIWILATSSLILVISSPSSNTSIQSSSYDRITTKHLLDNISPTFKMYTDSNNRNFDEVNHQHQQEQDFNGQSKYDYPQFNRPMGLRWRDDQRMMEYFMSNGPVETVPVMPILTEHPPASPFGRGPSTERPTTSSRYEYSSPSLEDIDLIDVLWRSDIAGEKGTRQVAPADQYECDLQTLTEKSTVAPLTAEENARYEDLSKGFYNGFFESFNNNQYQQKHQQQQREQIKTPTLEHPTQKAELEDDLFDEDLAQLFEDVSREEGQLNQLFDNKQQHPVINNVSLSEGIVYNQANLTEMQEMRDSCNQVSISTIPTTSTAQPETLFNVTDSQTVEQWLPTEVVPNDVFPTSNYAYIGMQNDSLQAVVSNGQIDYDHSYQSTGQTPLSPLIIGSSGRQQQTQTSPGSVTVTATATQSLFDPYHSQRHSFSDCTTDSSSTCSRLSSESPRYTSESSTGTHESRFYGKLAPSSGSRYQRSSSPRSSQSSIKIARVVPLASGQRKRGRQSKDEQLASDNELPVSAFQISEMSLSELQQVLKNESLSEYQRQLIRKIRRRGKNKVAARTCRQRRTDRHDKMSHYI

Cytochrome P450 1A2 = target: T4, Cytochrome P450 1A2 (Homo sapiens, UniProt P05177);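 also: PubChem cytochrome P450 panel assay, CYP1A2 panel member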
T4 sequence (P05177 whole entry): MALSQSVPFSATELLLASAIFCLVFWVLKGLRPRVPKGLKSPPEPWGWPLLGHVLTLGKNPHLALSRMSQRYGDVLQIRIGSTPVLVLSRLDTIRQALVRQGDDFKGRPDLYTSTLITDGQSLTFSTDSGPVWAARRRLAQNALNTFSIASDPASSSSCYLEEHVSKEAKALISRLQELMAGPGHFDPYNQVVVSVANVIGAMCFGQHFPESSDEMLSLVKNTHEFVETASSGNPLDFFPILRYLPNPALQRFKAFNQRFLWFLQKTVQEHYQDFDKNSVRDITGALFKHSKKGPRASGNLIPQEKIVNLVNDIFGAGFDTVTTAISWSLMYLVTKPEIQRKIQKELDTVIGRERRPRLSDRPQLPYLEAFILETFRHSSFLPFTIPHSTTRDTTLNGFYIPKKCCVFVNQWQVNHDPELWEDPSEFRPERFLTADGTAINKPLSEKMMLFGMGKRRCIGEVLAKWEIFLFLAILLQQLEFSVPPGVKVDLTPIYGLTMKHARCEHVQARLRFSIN

Cytochrome P450 2C9 = Cytochrome P450 2C9 (Homo sapiens, UniProt P11712)
Cytochrome P450 2C9, sequence (P11712 whole entry): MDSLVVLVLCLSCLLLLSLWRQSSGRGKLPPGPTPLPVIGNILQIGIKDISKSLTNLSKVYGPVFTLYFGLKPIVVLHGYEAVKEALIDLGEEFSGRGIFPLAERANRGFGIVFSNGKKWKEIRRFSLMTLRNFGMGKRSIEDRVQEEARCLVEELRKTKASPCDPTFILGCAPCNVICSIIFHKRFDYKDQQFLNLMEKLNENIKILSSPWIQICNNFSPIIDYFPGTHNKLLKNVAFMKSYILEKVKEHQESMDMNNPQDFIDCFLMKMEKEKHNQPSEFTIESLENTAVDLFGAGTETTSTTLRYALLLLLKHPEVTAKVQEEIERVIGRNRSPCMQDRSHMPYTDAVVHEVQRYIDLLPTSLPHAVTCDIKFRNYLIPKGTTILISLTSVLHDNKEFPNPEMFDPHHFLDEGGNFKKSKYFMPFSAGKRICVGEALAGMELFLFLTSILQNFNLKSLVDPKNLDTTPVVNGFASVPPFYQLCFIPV

Genome polyprotein = Genome polyprotein (dengue virus type 2, UniProt P29990); experiment: flavivirus cap methylation enzyme inhibition – biochemical, confirmation dose response, primary screen (AID 588689); type: functional
Genome polyprotein, sequence (P29990 2492-3391 limits assumed): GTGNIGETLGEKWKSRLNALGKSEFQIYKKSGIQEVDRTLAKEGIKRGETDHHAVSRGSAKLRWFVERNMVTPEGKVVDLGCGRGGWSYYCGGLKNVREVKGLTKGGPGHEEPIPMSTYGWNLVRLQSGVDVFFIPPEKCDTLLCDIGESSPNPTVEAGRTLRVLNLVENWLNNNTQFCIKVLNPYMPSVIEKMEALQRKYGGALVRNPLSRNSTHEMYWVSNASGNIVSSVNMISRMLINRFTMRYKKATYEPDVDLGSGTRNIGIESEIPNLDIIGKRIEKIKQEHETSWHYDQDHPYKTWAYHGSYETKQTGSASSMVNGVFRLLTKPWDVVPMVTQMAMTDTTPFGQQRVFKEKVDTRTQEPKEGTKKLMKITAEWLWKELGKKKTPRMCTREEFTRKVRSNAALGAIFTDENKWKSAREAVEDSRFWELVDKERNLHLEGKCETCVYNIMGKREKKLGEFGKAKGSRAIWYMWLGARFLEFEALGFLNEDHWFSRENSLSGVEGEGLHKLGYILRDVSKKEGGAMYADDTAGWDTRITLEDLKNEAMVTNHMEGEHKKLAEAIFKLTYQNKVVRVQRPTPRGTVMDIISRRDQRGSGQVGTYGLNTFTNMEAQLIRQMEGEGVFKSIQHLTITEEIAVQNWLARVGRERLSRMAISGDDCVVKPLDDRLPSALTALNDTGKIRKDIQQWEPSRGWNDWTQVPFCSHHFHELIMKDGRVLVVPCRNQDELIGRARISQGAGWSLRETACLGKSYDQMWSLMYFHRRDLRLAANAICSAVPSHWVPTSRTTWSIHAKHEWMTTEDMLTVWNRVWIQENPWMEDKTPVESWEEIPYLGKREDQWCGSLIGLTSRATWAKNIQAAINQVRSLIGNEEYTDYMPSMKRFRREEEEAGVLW

[8] = target: T5, Heat shock factor protein 1 (Mus musculus, UniProt P38532); experiment: enhancement of HSF1-driven luciferase signal – cell-based, NIH3T3, luminescence, dose retest, confirmation (AID 435004); type: functional;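 also: stress induced by proteasome inhibitor MG132 added 30 min after compound; luciferase reporter driven by HSF1 response element in NIH3T3 cells; actives raise luminescence as potentiators of the MG132 stress response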
T5 sequence (P38532 whole entry): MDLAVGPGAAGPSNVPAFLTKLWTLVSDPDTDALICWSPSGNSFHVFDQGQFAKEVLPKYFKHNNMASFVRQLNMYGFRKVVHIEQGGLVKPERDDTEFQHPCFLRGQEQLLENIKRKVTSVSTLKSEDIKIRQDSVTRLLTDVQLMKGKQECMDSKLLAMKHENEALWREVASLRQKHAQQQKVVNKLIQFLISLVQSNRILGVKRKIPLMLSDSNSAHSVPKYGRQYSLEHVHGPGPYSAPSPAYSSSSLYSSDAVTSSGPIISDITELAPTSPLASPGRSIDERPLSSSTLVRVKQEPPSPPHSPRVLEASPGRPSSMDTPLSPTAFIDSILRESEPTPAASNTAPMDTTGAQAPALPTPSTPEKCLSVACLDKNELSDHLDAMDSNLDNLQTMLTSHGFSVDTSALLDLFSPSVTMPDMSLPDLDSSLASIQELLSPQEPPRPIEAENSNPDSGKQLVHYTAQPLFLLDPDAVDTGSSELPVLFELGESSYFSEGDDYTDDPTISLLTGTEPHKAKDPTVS

[9] = target: Induced myeloid leukemia cell differentiation protein Mcl-1 (Homo sapiens, UniProt Q07820); type: functional
Leucine aminopeptidase = target: T6, Leucine aminopeptidase (Plasmodium falciparum 3D7, UniProt Q8IL11); experiment: P. falciparum M17LAP inhibitors, primary screen, biochemical, fluorogenic H-Leu-NHMec substrate, 1536-well (AID 1619); type: functional
T6 sequence (Q8IL11 whole entry): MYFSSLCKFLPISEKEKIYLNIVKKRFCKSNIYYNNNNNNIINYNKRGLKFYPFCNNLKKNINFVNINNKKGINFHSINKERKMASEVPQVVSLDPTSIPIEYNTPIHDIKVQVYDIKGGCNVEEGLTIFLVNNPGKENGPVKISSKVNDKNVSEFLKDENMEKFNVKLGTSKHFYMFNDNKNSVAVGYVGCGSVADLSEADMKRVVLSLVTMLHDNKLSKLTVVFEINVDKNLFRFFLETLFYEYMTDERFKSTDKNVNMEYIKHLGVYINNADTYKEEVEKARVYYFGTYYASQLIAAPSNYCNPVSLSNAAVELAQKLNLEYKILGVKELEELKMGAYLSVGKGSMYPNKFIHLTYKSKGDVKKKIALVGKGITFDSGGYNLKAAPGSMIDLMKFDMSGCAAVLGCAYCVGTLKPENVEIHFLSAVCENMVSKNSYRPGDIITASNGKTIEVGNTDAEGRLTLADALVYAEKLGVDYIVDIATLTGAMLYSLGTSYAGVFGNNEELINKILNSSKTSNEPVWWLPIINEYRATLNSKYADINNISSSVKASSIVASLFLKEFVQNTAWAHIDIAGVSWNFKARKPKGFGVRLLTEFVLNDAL

BJ [10] = experiment: growth inhibition of engineered Ras-driven BJ cells – cell-based, alamar blue fluorescence, cherrypicked samples, dose response (AID 2631); type: functional; conditions: Homo sapiens;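 also: confirmatory dose-response assay in RAS-dependent BJ fibroblasts engineered with TERT, LT and ST, with cytotoxicity read by fluorescence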
BJ [11] = experiment: BJ-TERT fibroblast viability loss – cell-based, RAS-independent, luminescence, dose response (AID 1933); type: functional; conditions: Homo sapiens
BJ [12] = experiment: BJ-TERT-LT-ST fibroblast viability loss – cell-based, RAS-independent, luminescence, dose response (AID 1935); type: functional; conditions: Homo sapiens;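 also: BJ fibroblasts immortalized with TERT plus LT and ST oncogenes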
BJ [13] = experiment: cells; type: functional, cell-based; conditions: Homo sapiens
[14] = DRD fibroblast viability loss – cell-based, non-viral oncogenic, luminescence, dose response (AID 1934); type: functional; conditions: Homo sapiens
[15] = luciferase reporter signal suppression in cells – H4 neuroglioma cells, luminescence, dose response (AID 1990); type: functional, cell-based
[16] = Luminescence Cell-Based Dose Response HTS to Identify Inhibitors of 5'UTR Stem-Loop Driven Prion Protein mRNA Translation in H4 Neuroglioblastoma Cells. [Related pubchem assays: 1827 (Project Summary), 1813 (Primary HTS)]; type: functional
[17] = alpha-synuclein stem-loop luciferase translation blockers – H4 neuroglioma cells, luminescence, confirmation (AID 1988); type: functional, cell-based
[18] = NIH-3T3 fibroblast cytotoxicity, dose response, cytotoxicity control, cell-based, fluorescence, Alamar Blue, secondary assay (AID 2327); type: functional;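 also: NIH-3T3 mouse fibroblasts cultured with fluconazole at 8 µg/mL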
[19] = fluconazole-exposed Candida albicans growth modulators – fluorescence, retest, confirmation (AID 2467); type: functional, cell-based

Structure (SMILES): O=C(O)c1[nH]c2ccccc2c1C(c1c(F)cccc1Cl)c1c(C(=O)O)[nH]c2ccccc12
- AC50 [1]: 69.9 µM (active)

Structure (SMILES): COc1cccc(-c2csc(N3CCN(CC(=O)Nc4ccc5c(c4)OCO5)CC3)n2)c1
- AC50 [2]: 17.2 µM (active)

Structure (SMILES): COC(=O)c1cccc(NC(=O)c2ccc[n+]([O-])c2)c1
- IC50 [3]: 18 µM (inactive)

Structure (SMILES): COc1ccc(S(=O)(=O)N2CCN(C(=O)c3cc4c(s3)CCC4)CC2)cc1
- IC50 [4]: 11.3 µM (active)
- IC50 [5]: 1.61 µM (active)
- CC50 [6]: > 40 µM (active)

Structure (SMILES): COc1ccc2c(c1)OC[C@H]1[C@H]2N2C(=O)c3cc(Cl)ccc3NC(=O)[C@@]2(C)[C@H]1c1ccccc1
- AC50 [7]: 0.976 µM (active)

Structure (SMILES): c1ccc(CCNc2nnnn2-c2ccccc2)cc1
- AC50 (Cytochrome P450 2C19): 1.78 µM (inconclusive)
- IC50 (Protein skinhead-1): > 100 µM (inactive)
- AC50 (Cytochrome P450 1A2): 2.51 µM (inconclusive)
- AC50 [2]: 9.58 µM (active)
- AC50 (Cytochrome P450 2C9): 11.2 µM (inconclusive)

Structure (SMILES): Cc1cccc(NC(=O)CSc2nnc(-c3ccco3)c(-c3ccco3)n2)c1C
- IC50 (Genome polyprotein): 96.3 µM (active)
- AC50 [1]: > 100 µM (inactive)
- EC50 [8]: > 260 µM (inactive)
- IC50 [9]: 5.98 µM (active)
- IC50 (Leucine aminopeptidase): 20.6 µM (active)
- CC50 [6]: > 40 µM (active)

Structure (SMILES): COc1ccc(S(=O)(=O)N2CCOCC2)cc1NC(=O)CCNC(=O)c1ccc(Br)cc1
- EC50 (BJ [10]): 6.09 µM (active)
- EC50 (BJ [11]): > 150 µM (not active)
- EC50 (BJ [12]): 2.02 µM (active)
- EC50 (BJ [13]): 2.84 µM (inconclusive)
- EC50 [14]: > 150 µM (not active)
- EC50 [15]: 10.6 µM (active)
- EC50 [16]: 5.78 µM (active)
- EC50 [17]: 1.09 µM (active)

Structure (SMILES): COc1ccc(C2CC(=O)Oc3c(C(C)C)ccc(C)c32)cc1 (configuration not stated)
- AC50 [1]: > 100 µM (inactive)

Structure (SMILES): CCOC(=O)c1cc2cc(OCc3ccccc3)ccc2nc1C
- AC50 [7]: 3.93 µM (active)

Structure (SMILES): O=C(N/N=C/c1ccc(O)c([N+](=O)[O-])c1)C1CC1(c1ccccc1)c1ccccc1 (configuration not stated)
- AC50 [1]: 22.2 µM (active)
- EC50 [18]: > 160 µM (inactive)
- EC50 [19]: 1.04 µM (active)

Structure (SMILES): O=C(Cc1ccc(NC(=O)C2CCN(C(=O)C3CCCC3)CC2)cc1)Nc1ccc(C(=O)N2CCOCC2)cc1
- IC50 [3]: 1.54 µM (active)
